Measured values from EPA's ToxValDB 9.5 (doi:10.2903/j.efsa.2010.1771).
Values after ≈ are worked out from the molar mass of the structure shown.

What was measured:
Anas platyrhynchos = settings: short-term; oral; feed; mortality
Canidae = settings: oral, Dog Other, hematological
Apis mellifera = settings: acute; duration: 48 hours; oral; unspecified; mortality
Typhlodromus pyri = settings: not reported; mortality
Tagia sp. = settings: acute; mortality
Daphnia magna = settings: chronic/long-term; duration: 21 days; reproduction

SMILES: CCSC(C)CC1CC(=O)C(C(CC)=NOC/C=C/Cl)=C(O)C1 (stereo not drawn) [Clethodim]
- LD50 (Rattus norvegicus; acute, oral, mortality): 1130 mg/kg
- NOAEL (Rattus norvegicus; chronic, duration: 2 years, organ weight): 16 mg/kg-day
- LC50 (Oncorhynchus mykiss; acute, duration: 96 hours, mortality): 25 µg/mL (≈ 69.5 µM)
- NOEC (Oncorhynchus mykiss; chronic/long-term, duration: 21 days): 3.9 mg/L
- LC50 (Anas platyrhynchos): > 851 mg/kg-day
- NOAEL (Canidae; chronic, duration: 1 years): 21 mg/kg-day
- NOAEL (Canidae; subchronic, duration: 90 days): 21 mg/kg-day
- LD50 (Apis mellifera): > 43 µg/piece
- LEL (Typhlodromus pyri): 9.6 g/ha
- LC50 (Tagia sp.): 129 mg/kg
- LD50 (Colinus virginianus; acute, oral, mortality): > 1640 mg/kg
- NOEL (Colinus virginianus; reproduction developmental, reproduction): 17 mg/kg-day
- NOEC (Daphnia magna): 49 mg/L
